Data from paper PMC8954350, “Non-Canonical Cannabinoid Receptors with Distinct Binding and Signaling Properties in Prostate and Other Cancer Cell Types Mediate Cell Death” (International Journal of Molecular Sciences, 2022).
Read-outs that look alike come from different tables or passages of the source.

What was measured:
[1] = test system: CBRs expressed in PC-3 membranes; assay: [^3H]WIN-55,212-2 competitive binding screen, PC-3 membranes; design: species or system human
Experimental: (§1) The assay was conducted as previously detailed. […] All binding reactions were conducted in triplicate, in a final volume of 1 mL, and, following mixing, were incubated for 20 min in a 37 °C water bath to achieve equilibrium. After incubation, reactions were terminated by rapid vacuum filtration through Whatman GF/B glass fiber filters (Brandel; Gaithersburg, MD, USA), followed by three washes of 4 mls of ice-cold filtration buffer (50 mM Tris, pH 7.4, and 0.05% bovine serum albumin). Samples were punched out from filter papers into scintillation vials, to which 4 mls of ScintiverseTM-BDR cocktail scintillation fluid (Fisher Scientific; Hampton, NH, USA) was added. Filters were incubated at room temperature for 24 h in scintillation fluid, vortexed, and radioactivity (measured as DPMs) was quantified via a liquid scintillation spectrophotometer (Tri Carb 2100 TR Liquid Scintillation Analyzer, Packard Instruments, Meriden, CT, USA).
(§2) These experiments were conducted to screen well-characterized cannabinoid ligands with high affinity for canonical CB1 and/or CB2Rs for binding to CBRs expressed in prostate cancer cells lines, as detailed in [33]. […] All binding reactions were conducted in triplicate, in a final volume of 1 mL, and, following mixing, were incubated for 20 min in a 37 °C water bath to achieve equilibrium. After incubation, reactions were terminated by rapid vacuum filtration and processed for radioactivity, as detailed in Section 4.5.1.

[2] = test system: CBRs expressed in DU-145 membranes; format: binding, human
Experimental: as §1, §2

DU-145 cells [3] = assay: ATP-dependent cell viability, DU-145 cells; format: cell-based, human; details: co-incubation with 10 μM ligand, 24 h
Experimental: Adenosine 5′-triphosphate (ATP) levels were quantified as a measure of DU-145 cell viability in response to cannabinoid treatement using an ATP-luciferase-based bioluminescence assay kit (CellTiter-Glo®, Sigma, MO, USA) and BioTek microplate reader (Winooski, VT, USA). DU-145 cells were seeded at a density of 8 × 10^3 cells/well in a 96-well plate and incubated for 24 h at 37 °C with 5% CO2. The next day, cells were treated with either vehicle or experimental drugs (10 or 50 μM) and incubated for another 24 h at 37 °C with 5% CO2. ATP levels were assessed following incubation by interpolation from an ATP standard curve according to the manufacturer’s protocol, as described previously.

DU-145 cells [4] = assay: Mitochondrial membrane potential (JC-1 staining), DU-145 cells; format: cell-based, human; details: 24 h
DU-145 cells [5] = assay: LDH cytotoxicity, DU-145 cells; format: cell-based, human; details: 500 nM, 24 h
Experimental: DU-145 cells were seeded at a density of 130 × 10^3 cells/well in 6-well plates and maintained in an incubator at 37 °C with 5% CO2 for 24 h. […] Treated cells were incubated for an additional 24 h, followed by quantification of LDH release. LDH released from damaged or dying cells oxidizes lactate to produce NADH which then reacts with a water-soluble tetrazolium salt (WST) reagent to produce a yellow-colored product. The intensity of the yellow-colored product was detected with an OD reading at 450 nm (quantified by a BioTek microplate reader interfaced with SoftMax Pro 5.4.5 software; Winooski, VT, USA) and was directly proportional to the amount of LDH released. Percent cytotoxicity was calculated according to the manufacturer’s protocol as the following: % Cytotoxicity=OD450 Supernatant/Supernatant+Lysate

[6] = test system: CBRs expressed in PC-3 membranes; assay: [^35S]GTPγS binding, PC-3 membranes; format: biochemical, human; details: 10 μM
Experimental: [^35S]GTPγS binding experiments were conducted to examine G protein modulation by cannabinoids in prostate cancer cell lines DU-145 and PC-3, as detailed previously. Briefly, CHO-hCB2 (50 μg), PC3 (100 μg), or DU-145 (100 μg) membrane homogenates were incubated with a single receptor-saturating concentration (10^−5 M) of cannabinoid ligands to be examined and 0.1 nM [^35S]GTPγS in incubation buffer (20 mM HEPES buffer, pH 7.4, 10 μM GDP, 100 mM NaCl, 0.1% bovine serum albumin, and 10 mM MgCl2). Non-specific binding was defined as radioactivity remaining in the presence of 10 μM of non-radioactive GTPγS and subtracted from total binding to determine specific [^35S]GTPγS binding. All binding reactions were conducted in triplicate, in a final volume of 1 mL, and, following mixing, were incubated for 30 min at 30 °C. After incubation, reactions were terminated by rapid vacuum filtration through Whatman GF/B glass fiber filters (Brandel; Gaithersburg, MD, USA), followed by three washes of 4 mls of ice-cold filtration buffer (50 mM Tris, pH 7.4, and 0.05% bovine serum albumin). Samples were punched out from filter papers into scintillation vials, to which 4 mls of ScintiverseTM-BDR cocktail scintillation fluid (Fisher Scientific; Hampton, NH, USA) was added. Filters were incubated at room temperature for 24 h in scintillation fluid, vortexed, and radioactivity (measured as DPMs) was determined via a liquid scintillation spectrophotometer (Tri Carb 2100 TR Liquid Scintillation Analyzer, Packard Instruments, Meriden, CT, USA).

[7] = test system: CBRs expressed in DU-145 membranes; format: biochemical, human; details: 10 μM
Experimental: Non-specific binding was defined as radioactivity remaining in the presence of 10 μM of non-radioactive GTPγS and subtracted from total binding to determine specific [^35S]GTPγS binding. All binding reactions were conducted in triplicate, in a final volume of 1 mL, and, following mixing, were incubated for 30 min at 30 °C. After incubation, reactions were terminated by rapid vacuum filtration through Whatman GF/B glass fiber filters (Brandel; Gaithersburg, MD, USA), followed by three washes of 4 mls of ice-cold filtration buffer (50 mM Tris, pH 7.4, and 0.05% bovine serum albumin). Samples were punched out from filter papers into scintillation vials, to which 4 mls of ScintiverseTM-BDR cocktail scintillation fluid (Fisher Scientific; Hampton, NH, USA) was added. Filters were incubated at room temperature for 24 h in scintillation fluid, vortexed, and radioactivity (measured as DPMs) was determined via a liquid scintillation spectrophotometer (Tri Carb 2100 TR Liquid Scintillation Analyzer, Packard Instruments, Meriden, CT, USA).

[8] = 1 μM ligand, 1 nM radioligand, PC-3 membranes

SMILES | displacement of [^3H]WIN-55,212-2 [1, 8] | displacement of [^3H]WIN-55,212-2 [2] | further results
CC(C)[C@H](NC(=O)c1nn(CCCCCF)c2ccccc12)C(N)=O [5F-AB-PINACA] | failed to displace | failed to displace | –
O=C(NC12CC3CC(CC(C3)C1)C2)c1nn(CCCCCF)c2ccccc12 [5F-AKB48] | – | failed to displace | displacement of [^3H]WIN-55,212-2 [1]: failed to displace
CCCCC/C=C\C/C=C\C/C=C\C/C=C\CCCC(=O)NCCCl [ACEA] | – | failed to displace | displacement of [^3H]WIN-55,212-2 [1]: failed to displace
Cc1c(C(=O)NN2CCCCC2)nn(-c2ccc(Cl)cc2Cl)c1-c1ccc(I)cc1 [AM-251] | – | – | attenuation of GW-405833 (50 μM)-induced reduction in ATP concentrations (DU-145 cells [3]): significantly attenuated reductions in ATP concentrations produced by GW-405833; MMP on co-incubation with GW-405833 (10 μM) (DU-145 cells [4]; 10 μM ligand co-incubated): MMP was not significantly reduced from vehicle-treated levels
C=C(C)[C@@H]1CCC(C)=C[C@H]1c1c(O)cc(CCCCC)cc1O [CBD, cannabidiol] | failed to displace | failed to displace | –
O=C(Oc1cccc2ccccc12)c1cn(Cc2ccc(F)cc2)c2ccccc12 [FDU-PB-22] | failed to displace | failed to displace | –
CC(C)c1ccc(NC(=O)Cn2cnc3c2c(=O)n(C)c(=O)n3C)cc1 [HC-030031] | – | Neither the high affinity TRPV1 ligands capsaicin [38], PDDHV [39], and CAY-100448 [40] nor the TRPA1 ligand HC-030031 [41] produced significant displacement | –
Cc1c(C(=O)Nc2cccc(C(F)(F)F)c2)cc(-c2ccccc2)n1CCCN1CCOCC1 [HC-067047] | – | 22 ± 3.8% | –
Cc1ccc(C(=O)c2cn(CCCCCF)c3ccccc23)c2ccccc12 [MAM-2201] | failed to displace | failed to displace | –
CCCCCCCC/C=C\CCCCCCCC(=O)N[C@H](C(=O)O)C(C)C [N-oleoyl-valine] | – | 15 ± 2.7% | –
OCCOc1ccc(/C(=C(/CCCl)c2ccccc2)c2ccccc2)cc1 [OSP, ospemifene] | – | failed to displace | displacement of [^3H]WIN-55,212-2 [1]: failed to displace
CCCCCCCCCC(=O)O[C@@H]1[C@@H](C)[C@@]2(O)[C@@H](C=C(COC(=O)Cc3ccc(O)c(OC)c3)C[C@]3(O)C(=O)C(C)=C[C@@H]23)[C@@H]2C(C)(C)[C@]12OC(=O)CCCCCCCCC [PDDHV] | – | Neither the high affinity TRPV1 ligands capsaicin [38], PDDHV [39], and CAY-100448 [40] nor the TRPA1 ligand HC-030031 [41] produced significant displacement | –
CCCCCc1cc(O)c2c(c1)OC(C)(C)[C@@H]1CCC(C)=C[C@@H]21 [THC, Δ^9-tetrahydrocannabinol] | failed to displace | failed to displace | –
Cc1c(C(=O)c2cccc3ccccc23)c2cccc3c2n1[C@@H](CN1CCOCC1)CO3 [WIN-55,212-3] | – | 13.9 ± 2.7% | displacement of [^3H]WIN-55,212-2 [1]: 20.7 ± 10.3%
COc1cc(CNC(=O)CCCC/C=C/C(C)C)ccc1O [capsaicin] | – | Neither the high affinity TRPV1 ligands capsaicin [38], PDDHV [39], and CAY-100448 [40] nor the TRPA1 ligand HC-030031 [41] produced significant displacement | –
CC(=O)O[C@@]12CO[C@@H]1C[C@H](O)[C@@]1(C)C(=O)[C@H](O)C3=C(C)[C@@H](OC(=O)[C@H](O)[C@@H](NC(=O)OC(C)(C)C)c4ccccc4)C[C@@](O)([C@@H](OC(=O)c4ccccc4)[C@H]21)C3(C)C [docetaxel] | – | – | increase in LDH release (DU-145 cells [5]): 16.8 ± 3.4%; mitochondrial membrane potential (MMP) depolarization (DU-145 cells [4]; 500 nM, JC-1): induced significant mitochondrial membrane depolarization
COc1ccc2c(c1)CCC(c1ccccc1)=C2c1ccc(OCCN2CCCC2)cc1 [nafoxidine] | produced significant (but less) displacement | produced significant (but less) displacement | modulation of [^35S]GTPγS binding [6]: had no effect on G protein activity; modulation of [^35S]GTPγS binding [7]: had no effect on G protein activity
